Bounds are passed on as bounds.

The first test deals with eIF4E (Homo sapiens (Human), UniProt P06730). Description: TR-FRET assay for competitive binding of cap analogs to eIF4E. Particulars: N7-alkylated GDP derivatives; single measurement unless noted (a = average over 2 measurements); read-out: AC50/μM. From the text: His tagged eIF4E protein was purchased from Fitzgerald Industries International (80R-125; Acton, Mass.) and tRNA was purchased from SIGMA (R5636; St. Louis, Mo.). A biotinylated 20 nucleotide RNA oligo (5′Phos/rGrGrA rCrCrC rCrUrC rUrCrC rCrUrC rCrCrC rCrC biotin-3′) was purchased from Integrated DNA Technologies (Coralville, Iowa). Europium labelled anti his antibody was purchased from Perkin Elmer (ADOI 10; Waltham, Mass.) and streptavidin conjugated alexa fluor 647 was purchased from Life Technologies (S32357; Grand Island, N.Y.).
Chain of eIF4E (P06730 whole entry): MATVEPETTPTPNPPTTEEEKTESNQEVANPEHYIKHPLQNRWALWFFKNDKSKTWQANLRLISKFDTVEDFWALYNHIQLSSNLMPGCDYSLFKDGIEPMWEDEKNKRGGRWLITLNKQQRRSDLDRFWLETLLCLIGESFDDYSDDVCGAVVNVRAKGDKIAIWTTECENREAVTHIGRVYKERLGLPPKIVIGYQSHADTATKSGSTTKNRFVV
The TR-FRET assay was performed in an assay buffer of PBS (pH 7.4), 0.02% Tween, and 0.1% BSA using four separate addition steps. Initially, 5 μl of His-eIF4E (10 nM) and tRNA (0.1 mg/ml) were added into a black walled 384 well small volume plate. Next, 1 al/well of freshly diluted compound was added using the Beckman Coulter Biomek FX liquid dispenser with a final DMSO concentration of 1%. The compound and eIF4E were allowed to bind for 15 minutes at room temperature. The third addition consisted of adding 4 μl of chemically capped 7mGDP imidazole mRNA-biotin (10 nM) into every well, with the exception of one column containing only buffer to use as a background control. The binding reaction was incubated for one hour at room temperature. Finally, 5 al of the europium-labeled anti-His antibody (10 nM) and streptavidin conjugated alexa fluor 647 (10 nM) TR-FRET detection reagents were added to each well and allowed to incubate at room temperature protected from light for 1 h. The plates were read on the Envision plate reader (Perkin-Elmer) to measure signals from both the Alexa fluor (665 nm) and the europium (615 nm). A ratio of the alexa fluor and europium fluorescence as a function of cap analog concentration was calculated for data analysis and data were fit to a standard EC50 inhibition curve in Graph Pad.
A general note: In TR-FRET formats the signal depends on donor and acceptor labels being close together.
For the compound `Nc1nc([O-])c2c(n1)n([C@@H]1O[C@H](COP(=O)(O)OP(=O)(O)O)[C@@H](O)[C@H]1O)c[n+]2C(c1ccccc1)c1ccccc1` [Example 16], the AC50 was 47.1 µM.

Staying with this test, now noted: N^7-alkylated GMP derivatives; competition with capped 7mGDP mRNA-biotin; single measurement unless footnoted as average; read-out: AC50.
`CCc1ccc(-c2ccc(C(C)=O)cc2)cc1` [Example 60]: the AC50 is above 100 µM.

`CCc1ccc(-c2nc(C)no2)cc1` [Example 61]: the AC50 was determined as 16.7 µM. On the same count and under the same terms, for `CCc1ccc(-c2ccccc2OC)cc1` [Example 62] the value was above 100 µM.

Consider `CCc1ccc(-c2noc(C)n2)cc1` [Example 63], for which the AC50 is above 100 µM. The same measure, in the same setting: for `CCc1ncc(-c2ccc(F)cc2)o1` [Example 64] the value was above 100 µM; for `CCc1ccc(-c2ccccc2)cc1` [Example 65], 29 µM; for `CCc1ccc(-c2cccs2)nc1` [Example 66], 5.91 µM. Still for that read-out and setting: for `CCc1ccc(-c2ccsc2)cc1` [Example 67] the value was 2.69 µM; for `CCc1nc2ccccc2s1` [Example 68], 52.9 µM; for `CCc1cc2ccccc2s1` [Example 69], 63.2 µM. On the same count and under the same terms, under `CCc1ccc2nonc2c1` [Example 70] stands 23.7 µM. Turning to `CCc1nc2ccccc2n1C` [Example 71], the AC50 is above 100 µM. Same read-out and setting: under `CCc1cccc2c1cnn2C` [Example 72] stands above 100 µM. On the same count and under the same terms, for `CCc1ccc2cnn(C)c2c1` [Example 73] the value was above 100 µM; for `CCc1ccc2c(cnn2C)c1` [Example 74], above 100 µM.

(Values after patent US10676499B2, “3′ end caps, 5′ end caps and combinations thereof for therapeutic RNA” (NOVARTIS AG, priority 2014, dated 2020).)
